In US8048825B2, “Haloalkylsulfonanilide derivatives or salt thereof, herbicide comprising the derivatives as active ingredient, and use of the herbicide” (Nihon Nohyaku Co., Ltd., priority 2006, dated 2011):

How the values were obtained:
Assay type in all cases: in vivo
[1] = system: Scirpus juncoides; assay: Herbicidal efficacy on paddy field weeds of pre-emergence stage (Pre), Test Example 1; settings: 1000 g/ha as active ingredient, examined after 21 days
Method in brief: (§1)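 Clay-loam pots sown with Scirpus juncoides, covered with soil containing Lindernia procumbens seed, flooded to 5 cm. Next day formulated compound applied dropwise to water at 1000 g/ha a.i. Greenhouse-grown; growth inhibition versus untreated scored 0–5 after 21 days.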

[2] = system: Lindernia procumbens; assay: as above; settings: 1000 g/ha as active ingredient, examined after 21 days
Method in brief: as §1

[3] = system: Echinochloa crus-galli; assay: Herbicidal effect on paddy field weeds of post-emergence stage (Post), Test Example 2; settings: one-leaf stage, 1000 g/ha as active ingredient, examined after 21 days
Method in brief: (§2)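 Scirpus juncoides and Echinochloa crus-galli sown in clay loam, with Lindernia procumbens seed in the soil cover, under 5 cm flooding in greenhouse. At one-leaf stage, 1000 g/ha active ingredient applied to pot water. Efficacy scored visually 0–5 against untreated plants at 21 days after treatment.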

[4] = system: Scirpus juncoides; assay: as above; settings: one-leaf stage, 1000 g/ha as active ingredient, examined after 21 days
Method in brief: as §2

[5] = system: Lindernia procumbens; assay: as above; settings: one-leaf stage, 1000 g/ha as active ingredient, examined after 21 days
Method in brief: as §2

Structure (SMILES) | Scirpus juncoides pre (herbicidal effect) [1] | Lindernia procumbens pre (herbicidal effect) [2] | Echinochloa crus-galli post (herbicidal effect) [3] | Scirpus juncoides post (herbicidal effect) [4] | Lindernia procumbens post (herbicidal effect) [5]
CCOC(=O)N(c1ccccc1CN1CCCCOC1=S)S(=O)(=O)C(F)(F)F [2-14] | 4 (90%-99% herbicidal effect, phytotoxicity) | 4 (90%-99% herbicidal effect, phytotoxicity) | 4 (90%-99% herbicidal effect, phytotoxicity) | 4 (90%-99% herbicidal effect, phytotoxicity) | 4 (90%-99% herbicidal effect, phytotoxicity)
CCCCOC(=O)N(c1ccccc1CN1CC(C)(C)COC1=O)S(=O)(=O)C(F)(F)F [Compound 1-27] | 4 (90%-99% herbicidal effect, phytotoxicity) | 4 (90%-99% herbicidal effect, phytotoxicity) | 4 (90%-99% herbicidal effect, phytotoxicity) | 4 (90%-99% herbicidal effect, phytotoxicity) | 4 (90%-99% herbicidal effect, phytotoxicity)
CCOC(=O)N(c1ccccc1CN1CCCCOC1=O)S(=O)(=O)C(F)(F)F [2-3] | 4 (90%-99% herbicidal effect, phytotoxicity) | 4 (90%-99% herbicidal effect, phytotoxicity) | 4 (90%-99% herbicidal effect, phytotoxicity) | 4 (90%-99% herbicidal effect, phytotoxicity) | 4 (90%-99% herbicidal effect, phytotoxicity)
CCOC(=O)N(c1ccccc1CN1CCC(CC)(CC)OC1=O)S(=O)(=O)C(F)(F)F [Compound 1-104] | 4 (90%-99% herbicidal effect, phytotoxicity) | 4 (90%-99% herbicidal effect, phytotoxicity) | 4 (90%-99% herbicidal effect, phytotoxicity) | 4 (90%-99% herbicidal effect, phytotoxicity) | 4 (90%-99% herbicidal effect, phytotoxicity)
CCCCOC(=O)N(c1ccccc1CN1CCCCOC1=O)S(=O)(=O)C(F)(F)F [2-5] | 4 (90%-99% herbicidal effect, phytotoxicity) | 4 (90%-99% herbicidal effect, phytotoxicity) | 4 (90%-99% herbicidal effect, phytotoxicity) | 4 (90%-99% herbicidal effect, phytotoxicity) | 4 (90%-99% herbicidal effect, phytotoxicity)
CC(C)COC(=O)N(c1ccccc1CN1CCC(c2ccccc2)(C2CCC2)OC1=O)S(=O)(=O)C(F)(F)F (centres unmarked) [Compound 1-211] | 4 (90%-99% herbicidal effect, phytotoxicity) | 4 (90%-99% herbicidal effect, phytotoxicity) | 4 (90%-99% herbicidal effect, phytotoxicity) | 4 (90%-99% herbicidal effect, phytotoxicity) | 4 (90%-99% herbicidal effect, phytotoxicity)
CC(C)(C)COC(=O)N(c1ccccc1CN1CCC(C)(C)OC1=S)S(=O)(=O)C(F)(F)F [Compound 1-64] | 4 (90%-99% herbicidal effect, phytotoxicity) | 4 (90%-99% herbicidal effect, phytotoxicity) | 4 (90%-99% herbicidal effect, phytotoxicity) | 4 (90%-99% herbicidal effect, phytotoxicity) | 4 (90%-99% herbicidal effect, phytotoxicity)
CCOC(=O)N(c1ccccc1CN1CCC(CC)(c2ccccc2)OC1=O)S(=O)(=O)C(F)(F)F (centres unmarked) [Compound 1-318] | 4 (90%-99% herbicidal effect, phytotoxicity) | 5 (100% herbicidal effect, phytotoxicity) | 4 (90%-99% herbicidal effect, phytotoxicity) | 4 (90%-99% herbicidal effect, phytotoxicity) | 5 (100% herbicidal effect, phytotoxicity)
CC1(C2CCC2)CCN(Cc2ccccc2NS(=O)(=O)C(F)(F)F)C(=O)O1 (centres unmarked) [Compound 1-382] | 5 (100% herbicidal effect, phytotoxicity) | 5 (100% herbicidal effect, phytotoxicity) | 4 (90%-99% herbicidal effect, phytotoxicity) | 4 (90%-99% herbicidal effect, phytotoxicity) | 5 (100% herbicidal effect, phytotoxicity)
CCC1(C(F)(F)F)CCN(Cc2ccccc2N(C(=O)OC)S(=O)(=O)C(F)(F)F)C(=O)O1 (centres unmarked) [Compound 1-92] | 4 (90%-99% herbicidal effect, phytotoxicity) | 5 (100% herbicidal effect, phytotoxicity) | 4 (90%-99% herbicidal effect, phytotoxicity) | 4 (90%-99% herbicidal effect, phytotoxicity) | 5 (100% herbicidal effect, phytotoxicity)
CC(C)COC(=O)N(c1ccccc1CN1CCC(C)(C(C)(C)C)OC1=O)S(=O)(=O)C(F)(F)F (centres unmarked) [Compound 1-332] | 5 (100% herbicidal effect, phytotoxicity) | 5 (100% herbicidal effect, phytotoxicity) | 4 (90%-99% herbicidal effect, phytotoxicity) | 4 (90%-99% herbicidal effect, phytotoxicity) | 5 (100% herbicidal effect, phytotoxicity)
CCC1(c2ccccc2)CCN(Cc2ccccc2N(C(=O)OCC(C)C)S(=O)(=O)C(F)(F)F)C(=O)O1 (centres unmarked) [Compound 1-321] | 4 (90%-99% herbicidal effect, phytotoxicity) | 5 (100% herbicidal effect, phytotoxicity) | 4 (90%-99% herbicidal effect, phytotoxicity) | 4 (90%-99% herbicidal effect, phytotoxicity) | 5 (100% herbicidal effect, phytotoxicity)
CC(C)(C)COC(=O)N(c1ccccc1CN1CCC(C)(C)OC1=O)S(=O)(=O)C(F)(F)F [Compound 1-51] | 4 (90%-99% herbicidal effect, phytotoxicity) | 4 (90%-99% herbicidal effect, phytotoxicity) | 4 (90%-99% herbicidal effect, phytotoxicity) | 4 (90%-99% herbicidal effect, phytotoxicity) | 4 (90%-99% herbicidal effect, phytotoxicity)
COC(=O)N(c1ccccc1CN1CCC(C(F)(F)F)(C(F)(F)F)OC1=O)S(=O)(=O)C(F)(F)F [Compound 1-339] | 4 (90%-99% herbicidal effect, phytotoxicity) | 5 (100% herbicidal effect, phytotoxicity) | 4 (90%-99% herbicidal effect, phytotoxicity) | 4 (90%-99% herbicidal effect, phytotoxicity) | 5 (100% herbicidal effect, phytotoxicity)
CCOC(=O)N(c1ccccc1CN1CCC(C)(C)OC1=O)S(=O)(=O)C(F)(F)F [Compound 1-47] | 4 (90%-99% herbicidal effect, phytotoxicity) | 4 (90%-99% herbicidal effect, phytotoxicity) | 4 (90%-99% herbicidal effect, phytotoxicity) | 4 (90%-99% herbicidal effect, phytotoxicity) | 4 (90%-99% herbicidal effect, phytotoxicity)
CCOC(=O)N(c1ccccc1CN1CCC(C)(c2c(F)cccc2F)OC1=O)S(=O)(=O)C(F)(F)F (racemic) [Compound 1-441] | 5 (100% herbicidal effect, phytotoxicity) | 5 (100% herbicidal effect, phytotoxicity) | 5 (100% herbicidal effect, phytotoxicity) | 4 (90%-99% herbicidal effect, phytotoxicity) | 5 (100% herbicidal effect, phytotoxicity)
Cc1ccccc1C1CCN(Cc2ccccc2NS(=O)(=O)C(F)(F)F)C(=O)O1 (centres unmarked) [Compound 1-283] | 5 (100% herbicidal effect, phytotoxicity) | 5 (100% herbicidal effect, phytotoxicity) | 4 (90%-99% herbicidal effect, phytotoxicity) | 4 (90%-99% herbicidal effect, phytotoxicity) | 5 (100% herbicidal effect, phytotoxicity)
CCCCOC(=O)N(c1ccccc1CN1CCCOC1=S)S(=O)(=O)C(F)(F)F [Compound 1-16] | 4 (90%-99% herbicidal effect, phytotoxicity) | 4 (90%-99% herbicidal effect, phytotoxicity) | 4 (90%-99% herbicidal effect, phytotoxicity) | 4 (90%-99% herbicidal effect, phytotoxicity) | 4 (90%-99% herbicidal effect, phytotoxicity)
CCCCC(CC)COC(=O)N(c1ccccc1CN1CCC(CC)(CC)OC1=O)S(=O)(=O)C(F)(F)F (centres unmarked) [Compound 1-109] | 4 (90%-99% herbicidal effect, phytotoxicity) | 4 (90%-99% herbicidal effect, phytotoxicity) | 4 (90%-99% herbicidal effect, phytotoxicity) | 4 (90%-99% herbicidal effect, phytotoxicity) | 4 (90%-99% herbicidal effect, phytotoxicity)
